pIC50: −log10 of the molar value. Non-standard residues stand in square brackets, D forms with d. Residues, ends and D or L forms follow the SMILES beside them. ξ: configuration not given here. *: point of attachment. Phe(4-Br) = N[CH](Cc1ccc(Br)cc1)C(=O)O; ξW = NC(Cc1c[nH]c2ccccc12)C(=O)O; Cha = N[CH](CC1CCCCC1)C(=O)O; Cbz = O=C(OCc1ccccc1)*; Bn = c1ccc(C*)cc1
Each compound was assayed against endothelin converting enzyme (ECE) (Sus scrofa, UniProt F1SU04) (assay: "ECE" assay with porcine aortic "ECE" prep, fluorogenic substrate Suc-Ile-Ile-Trp-MCA). Details: porcine aortic endothelial cell ECE prep; 80 μM Suc-Ile-Ile-Trp-MCA; 15-20 min preincubation; overnight at 37° C.; pH 7.0; AMC fluorescence.
Sequence of endothelin converting enzyme (ECE) (F1SU04 entry or part of it): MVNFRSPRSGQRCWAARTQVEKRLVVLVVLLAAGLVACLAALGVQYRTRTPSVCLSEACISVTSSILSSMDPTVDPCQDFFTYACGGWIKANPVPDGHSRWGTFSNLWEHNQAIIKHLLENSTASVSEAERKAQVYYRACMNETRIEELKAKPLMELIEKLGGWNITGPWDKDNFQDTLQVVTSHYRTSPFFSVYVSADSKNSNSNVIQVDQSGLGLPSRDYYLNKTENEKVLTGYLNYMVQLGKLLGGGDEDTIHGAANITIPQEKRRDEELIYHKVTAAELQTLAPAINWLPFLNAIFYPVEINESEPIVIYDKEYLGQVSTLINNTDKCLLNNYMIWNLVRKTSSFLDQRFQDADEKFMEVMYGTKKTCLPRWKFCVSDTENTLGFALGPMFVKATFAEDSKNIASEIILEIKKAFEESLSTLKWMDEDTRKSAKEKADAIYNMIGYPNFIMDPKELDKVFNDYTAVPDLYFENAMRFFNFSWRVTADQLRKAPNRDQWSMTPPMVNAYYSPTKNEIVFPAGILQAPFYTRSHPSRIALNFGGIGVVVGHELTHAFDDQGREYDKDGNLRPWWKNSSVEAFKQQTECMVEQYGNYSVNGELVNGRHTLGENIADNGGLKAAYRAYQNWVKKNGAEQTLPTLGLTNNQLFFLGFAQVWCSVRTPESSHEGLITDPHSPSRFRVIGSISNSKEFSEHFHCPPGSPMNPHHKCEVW
Assay type: biochemical
Description: IC50 values were determined as follows:
Porcine Aortic "ECE" Prep
Porcine aortas (22-25) were obtained fresh from a local slaughterhouse and delivered in cold PBS on ice. The aortas were cut open, rinsed with cold PBS and the endothelial cell layer scraped into cold PBS using a scalpel. The endothelial cells were pelleted by centrifugation, rinsed once with cold PBS, and repelleted. The pellet was lysed by addition of 10 volumes of 10 mM Tris-HCl, pH 7.0, containing protease inhibitors and DTS, followed by brief sonication and homogenization. The lysate was centrifuged at 100,000 g for 1 hour and the supernatant applied to a MONOQ FPLC anion exchange column equilibrated in 10 mM Tris-HCl, pH 7.0 (buffer A) which was then developed with an increasing gradient of NaCl in buffer A. The active fractions were aliquoted and stored at -70° C.
The ECE assay was performed in 96-well microplates in a total volume of 200μ/well. The assay cocktail contains 100 mM Tris-HCl, pH 7.0, 20 mM CaCl2, 80 μM substrate (Suc-Ile-Ile-Trp-MCA), enzyme and test compounds. The test compounds were preincubated with the enzyme for 15-20 minutes before initiation of the assay by addition of the substrate. The assay was incubated overnight at 37° C. and the fluorescence intensity caused by the release of AMC was determined using a fluorescence microplate reader (EX360 nm/EM460 nm). IC50 values for compounds were determined by constructing concentration-effect curves for the inhibition of enzyme activity. Concentrations on the linear portion of the inhibition curve were used to determine the IC50 utilizing a Hill plot.

Compound | pIC50
CC[C@@H](C)[C@@H](NC(=O)OCc1ccccc1)C(=O)N[C@H](C(=O)N[C@H](C=O)Cc1c[nH]c2ccccc12)[C@@H](C)CC [Example 77, N-Benzyloxycarbonyl-R-isoleucyl-S-isoleucine-1-S--formyl-2-(1H--indol-3-yl)-ethylamide] (Cbz-[dI]-Ile-Trp-aldehyde) | 6.00
CC[C@H](C)[C@H](NC(=O)[C@H](Cc1ccccc1)NC(=O)OCc1ccccc1)C(=O)N[C@H](C=O)[C@@H](C)CC [Example 20, N-Benzyloxycarbonyl-S-phenylalanyl-S-isoleucyl-1-S-formyl-1-(S)-1-methylpropylmethylamide] (Cbz-Phe-Ile-Ile-aldehyde) | 5.96
CCOC(=O)C1OC1C(=O)NCC(Cc1c[nH]c2ccccc12)NC(=O)[C@@H](NC(=O)[C@@H](NC(=O)OCc1ccccc1)[C@@H](C)CC)[C@@H](C)CC (some centres unmarked) [Example 82] | 5.00
O=CC(Cc1ccc(Br)cc1)NC(=O)C(Cc1ccc(OCc2ccccc2)cc1)NC(=O)C(CC1CCCCC1)NC(=O)OCc1ccccc1 (stereo not drawn) [Example 97, N-Benzyloxycarbonyl-S-cyclohexylalanyl-S-(O-benzyl)tyrosyl-1-S-formyl-1-(4-bromophenylmethyl)-methylamide] (Cbz-[Cha]-Tyr(Bn)-[Phe(4-Br)]-aldehyde; configuration not given here) | 5.00
O=CC(Cc1c[nH]c2ccccc12)NC(=O)[C@H](Cc1cccc2ccccc12)NC(=O)[C@H](Cc1ccc(Br)cc1)NC(=O)CCCCC1SCC2NC(=O)NC21 (stereo partly drawn) [Example 93, N-[[5-(hexahydro-2-oxo-1H-thieno[3,4-d]imidazol-4-yl)pentanoyl]-L-p-bromophenylalanyl-L-1-naphthylalanyl-L-N-[1-formyl]2-(1H-indol-3-yl)ethyl]amide] | 8.70
CC[C@H](C)[C@H](NC(C)=O)C(=O)N[C@H](C(=O)NC(C=O)Cc1c[nH]c2ccccc12)[C@@H](C)CC (stereo partly drawn) [Example 60] (Ac-Ile-Ile-[ξW]-aldehyde) | 6.00
CC[C@H](C)[C@H](NC(=O)CCCCc1ccccc1)C(=O)N[C@H](C(=O)NC(C=O)Cc1c[nH]c2ccccc12)[C@@H](C)CC (some centres unmarked) [Example 89] | 7.30
CC[C@H](C)[C@H](NC(=O)CCOc1ccccc1)C(=O)N[C@H](C(=O)N[C@H](C=O)Cc1c[nH]c2ccccc12)[C@@H](C)CC [Example 90] | 7.22
O=C[C@H](Cc1ccc(Br)cc1)NC(=O)[C@H](Cc1ccc(OCc2ccccc2)cc1)NC(=O)[C@H](Cc1ccc(OCc2ccccc2)cc1)NC(=O)OCc1ccccc1 [Example 98, N-Benzyloxycarbonyl-S-(O-benzyl)tyrosyl-S-(O-benzyl)tyrosyl-1-S-formyl-1-(4-bromophenylmethyl)-methylamide] (Cbz-Tyr(Bn)-Tyr(Bn)-[Phe(4-Br)]-aldehyde) | 6.00
O=CC(Cc1c[nH]c2ccccc12)NC(=O)C(Cc1ccccc1)NC(=O)C(Cc1ccccc1)NC(=O)OCc1ccccc1 (stereo not drawn) [Example 32, N-Benzyloxycarbonyl-S-phenylalanyl-S-phenylalanyl-1-S-formyl-1-(1H-indol-3-yl-methyl)-methylamide] (Cbz-Phe-Phe-Trp-aldehyde; configuration not given here) | 7.00
COC(OC)[C@H](Cc1c[nH]c2ccccc12)NC(=O)[C@H](Cc1cccc2ccccc12)NC(=O)[C@H](Cc1ccc(Br)cc1)NC(=O)CCCCC1SCC2NC(=O)NC21 (stereo partly drawn) [Example 92, N-[[5-(hexahydro-2-oxo-1H-thieno[3,4-d]imidazol-4-yl)pentanoyl]-L-p-bromophenylalanyl-L-1-naphthylalanyl-L-N-[1-dimethoxymethyl]2-(1H-indol-3-yl)ethyl]amide] | 6.00
O=C[C@H](Cc1c[nH]c2ccccc12)NC(=O)[C@H](Cc1ccc(OCc2ccccc2)cc1)NC(=O)[C@H](Cc1c[nH]c2ccccc12)NC(=O)OCc1ccccc1 [Example 36, N-Benzyloxycarbonyl-S-tryptophanyl-S-(O-benzyl)tyrosyl-1-S-formyl-1-(1H-indol-3-yl-methyl)-methylamide] (Cbz-Trp-Tyr(Bn)-Trp-aldehyde) | 7.52
CC[C@H](C)[C@H](NC(=O)OCc1ccccc1)C(=O)N[C@H](C(=O)NC(CNC(=O)CCl)Cc1c[nH]c2ccccc12)[C@@H](C)CC (stereo partly drawn) [Example 85, N-(benzyloxy)carbonyl-L-isoleucyl-L-isoleucine-L-N-[1-[(2-chloroacetamido]methy]-2-(1H-indol-3-yl)ethyl]amide] | 5.00
CC[C@H](C)[C@H](NC(=O)OCc1ccccc1)C(=O)N[C@H](C(=O)N[C@H](C=O)Cc1c[nH]c2ccccc12)C(C)C [Example 29, N-Benzyloxycarbonyl-S-isoleucyl-S-valyl-1-S-formyl-1-(1H-indol-3-yl-methyl)-methylamide] (Cbz-Ile-Val-Trp-aldehyde) | 6.70
CC[C@H](C)[C@H](NC(=O)OCc1ccccc1)C(=O)N[C@H](C(=O)NC(CNC(=O)CCN1C(=O)C=CC1=O)Cc1c[nH]c2ccccc12)[C@@H](C)CC (stereo partly drawn) [Example 83, N-(benzyloxy)carbonyl-L-isoleucyl-L-isoleucine-L-N-[1-[(3-maleimidopropionamido]methyl]-2-(1H-indol-3-yl)ethyl]amide] | 6.00
CC[C@H](C)[C@H](NC(=O)CCCCCNC(=O)CCCCCNC(=O)c1cc(=O)[nH]c(=O)[nH]1)C(=O)N[C@H](C(=O)NC(C=O)Cc1c[nH]c2ccccc12)[C@@H](C)CC (some centres unmarked) [Example 69] | 7.22
N-[[[5-(hexahydro-2-oxo-1H-thieno[3,4-d]imidazol-4-yl)valeramido]hexanoyl]- L-isoleucyl-L-isoleucine-L-N-[1-formyl]2-(1H-indol-3-yl-ethyl]amide [Example 67] | 7.10
C#CC(=O)C(Cc1c[nH]c2ccccc12)NC(=O)[C@@H](NC(=O)[C@@H](NC(=O)OCc1ccccc1)[C@@H](C)CC)[C@@H](C)CC (stereo partly drawn) [Example 49, N-Benzyloxycarbonyl-L-isoleucyl-L-isoleucine-L_N-[1[2-propynoyl]2-(1H-indol-3-yl)ethyl]amide] | 5.00
CC[C@H](C)[C@H](NC(=O)CCCCCNC(=O)CCCCCNC(=O)OCc1ccccc1)C(=O)N[C@H](C(=O)N[C@@H](Cc1c[nH]c2ccccc12)C(OC)OC)[C@@H](C)CC [Example 68] | 5.30
CC[C@H](C)[C@H](NC(=O)OCc1ccccc1)C(=O)N[C@H](C(=O)N[C@H](C=O)Cc1ccccc1)[C@@H](C)CC [Example 16, N-Benzyloxycarbonyl-S-isoleucyl-S-isoleucine 1-S-formyl-2-phenyl-ethylamide] (Cbz-Ile-Ile-Phe-aldehyde) | 6.40
CC[C@H](C)[C@@H](C=O)NC(=O)[C@H](Cc1ccccc1)NC(=O)[C@H](C)NC(=O)OCc1ccccc1 [Example 21, N-Bezyloxycarbonyl-S-alanyl-S-phenylalanyl-1-S-formyl-1-(2-S-butyl)-methylamide] (Cbz-Ala-Phe-Ile-aldehyde) | 5.92
CC[C@H](C)[C@H](NC(=O)OCc1ccccc1)C(=O)N[C@H](C(=O)N[C@H](C=O)Cc1ccc(O)cc1)[C@@H](C)CC [Example 33, N-Benzyloxycarbonyl-S-isoleucyl-S-isoleucyl-1-S-formyl-1-(4-hydroxy-benzyl)-methylamide] (Cbz-Ile-Ile-Tyr-aldehyde) | 6.70
N-Benzyloxycarbonyl-S-tryptophanyl-S-tryptophanyl-1-S-formyl-1-(1H-indol-3- yl-methyl)-methylamide [Example 31] | 7.22

From patent US6235717A, “Pharmaceutical compounds” (Glaxo Wellcome Inc., priority 1993, dated 2001)
